The nature of data set [1]: in vitro. It counts as in vitro ADME, beagle dogs. To be noted: beagle, dog, microsomes; for amount remaining: 1 h, 5 μM.
Data set [2] can be described thus: in vitro. It is filed as in vitro ADME, rhesus monkeys. Particulars: rhesus monkey, microsomes; for amount remaining: 1 h, 5 μM.
The nature of data set [3]: in vitro. It is filed as in vitro ADME, mice. To be noted: mouse, microsomes; for final amount remaining: 60 min, 5 μM.
Data set [4] is classed as in vitro ADME, SD rats. Particulars: SD, rat, microsomes, 60 min, 5 μM.
The nature of data set [5]: in vitro. It counts as in vitro ADME, beagle dogs. Particulars: beagle, dog, microsomes; for final amount remaining: 60 min, 5 μM.
Data set [6] relates to HepG2 cells. As to the kind of experiment: HepG2 cell apoptosis after incubation of the compound with human liver microsomes (metabolism mixture). It counts as cell-based. To be noted: mixture on HepG2 cells 24 h. The procedure:
HepG2 cells were cultured in Roswell Park Memorial Institute (RPMI) 1640 medium (GIBCO, Grand Island, NY, USA) supplemented with 10% heat-inactivated fetal bovine serum (PAN Biotech GmbH, Aidenbach, Germany), 100 U/mL penicillin, and 100 μg/mL streptomycin. The cells were maintained in a humidified atmosphere with 5% CO2 at 37 °C. Upon reaching 90% confluence, the cells were prepared as single-cell suspensions at a density of 1 × 10^4 cells/mL by treatment with 0.25% trypsin with 0.02% EDTA and then dispensed into 12-well plates (Corning, NY, USA) with a total volume of 1.5 mL per well. After culturing for 24 h, the medium was discarded, and the cells were incubated with fresh medium or medium containing different hepatotoxic compounds at various concentrations for an additional 24 h. […] After treatment, the cells were collected for apoptosis analysis. To investigate the effects of the hepatotoxic compounds on HepG2 cell apoptosis, flow cytometry was performed with a FACSCalibur flow cytometer (BD Biosciences) using an Annexin V-FITC apoptosis detection kit. The cells were prepared according to the manufacturer’s instructions. Briefly, the collected cell pellets were washed three times by centrifugation at 2000 rpm and 4 °C for 5 min with PBS and resuspended in binding buffer. Then, the cells were incubated with Annexin V-FITC for 15 min, propidium iodide (PI) was added, and the cells were incubated for another 5 min. The whole labeling process was performed in the dark. After fluorescent labeling, the cell suspension was immediately analyzed by flow cytometry. Cells in the early phases of apoptosis can bind Annexin V-FITC but exclude PI, while cells in late apoptosis or those that are necrotic can be stained with Annexin V-FITC and PI simultaneously. The incubation mixtures were prepared following the instructions from the manufacturer of the metabolic stability kits and contained sagittatoside A, icariside I, baohuoside I, and icaritin, of which the final concentrations were 49, 50, 32 and 3.8 μg/mL. […]
In general terms: Liver microsomes are vesicles of endoplasmic reticulum, rich in cytochrome P450 enzymes.

Data set [7] in a line: in vitro. It is filed as in vitro ADME, rhesus monkeys. Particulars: rhesus monkey, microsomes; for final amount remaining: 60 min, 5 μM.
Data set [8] concerns HepG2 cells. As to the kind of experiment: HepG2 cell apoptosis by flow cytometry (Annexin V-FITC/PI). To be noted: 24 h. It is filed as cell-based. The procedure: HepG2 cells were cultured in Roswell Park Memorial Institute (RPMI) 1640 medium (GIBCO, Grand Island, NY, USA) supplemented with 10% heat-inactivated fetal bovine serum (PAN Biotech GmbH, Aidenbach, Germany), 100 U/mL penicillin, and 100 μg/mL streptomycin. The cells were maintained in a humidified atmosphere with 5% CO2 at 37 °C. Upon reaching 90% confluence, the cells were prepared as single-cell suspensions at a density of 1 × 10^4 cells/mL by treatment with 0.25% trypsin with 0.02% EDTA and then dispensed into 12-well plates (Corning, NY, USA) with a total volume of 1.5 mL per well. After culturing for 24 h, the medium was discarded, and the cells were incubated with fresh medium or medium containing different hepatotoxic compounds at various concentrations for an additional 24 h. […] After treatment, the cells were collected for apoptosis analysis. To investigate the effects of the hepatotoxic compounds on HepG2 cell apoptosis, flow cytometry was performed with a FACSCalibur flow cytometer (BD Biosciences) using an Annexin V-FITC apoptosis detection kit. The cells were prepared according to the manufacturer’s instructions. Briefly, the collected cell pellets were washed three times by centrifugation at 2000 rpm and 4 °C for 5 min with PBS and resuspended in binding buffer. Then, the cells were incubated with Annexin V-FITC for 15 min, propidium iodide (PI) was added, and the cells were incubated for another 5 min. The whole labeling process was performed in the dark. After fluorescent labeling, the cell suspension was immediately analyzed by flow cytometry. Cells in the early phases of apoptosis can bind Annexin V-FITC but exclude PI, while cells in late apoptosis or those that are necrotic can be stained with Annexin V-FITC and PI simultaneously.

Consider three molecules from paper PMC10975178, “Evaluation on the Potential for Hepatotoxic Components from Herba Epimedii to Induce Apoptosis in HepG2 Cells and the Analysis of the Influence of Metabolism in Liver Microsomes” (Molecules, 2024).

As usually defined, the CLint scaled is the capacity of the preparation to metabolise the compound, expressed as a volume cleared per time. A high value points to faster metabolism.

Like-named read-outs stand apart in the source and are kept apart here.

Consider `COc1ccc(-c2oc3c(CC=C(C)C)c(O)cc(O)c3c(=O)c2O[C@@H]2O[C@@H](C)[C@H](O)[C@@H](O)[C@H]2O)cc1` [baohuoside I], for which the CLint scaled at 5 μM amounted to 27.6 mL/min/kg in the data set “in vitro [1]” and 28.4 mL/min/kg in “in vitro [5]”. Besides, the amount remaining is given as 11.74 ± 0.78% in the data set “in vitro [1]” and 12.41 ± 1.02% in “in vitro [2]”. Also, the final amount remaining in the data set “in vitro [3]” is given as 11.64 ± 1.63%; in data set [4] it was 1.55 ± 0.33%; in “in vitro [5]”, 5.69 ± 0.33%; in the data set “in vitro [7]”, 0.86 ± 0.17%. Further, the “apoptosis rate, metabolism mixture” value with HepG2 cells [6] (32 μg/mL incubated 30 min with human liver microsomes (phase I and II), insignificant) is 3.40 ± 0.19%. In the data set with HepG2 cells [8] (32 μg/mL, mean ± SD n = 3, p < 0.05 vs control), this molecule displayed an apoptosis rate of 3.93 ± 0.20%.

In the case of `COc1ccc(-c2oc3c(CC=C(C)C)c(O[C@@H]4O[C@H](CO)[C@@H](O)[C@H](O)[C@H]4O)cc(O)c3c(=O)c2O)cc1` [icariside I], the intrinsic metabolic clearance (CLint scaled) at 5 μM in “in vitro [1]” was 25.2 mL/min/kg; in “in vitro [2]”, 38.1 mL/min/kg; in the data set “in vitro [3]”, 79.3 mL/min/kg; in “in vitro [5]” it was 24.7 mL/min/kg; in “in vitro [7]”, 36.4 mL/min/kg. For the same molecule, the amount remaining in “in vitro [1]” is reported as 34.93 ± 2.83%; in the data set “in vitro [2]”, 6.50 ± 0.49%. Moreover, the final amount remaining in the data set “in vitro [3]” is on record as 12.18 ± 0.64%; in data set [4] it was 22.71 ± 10.94%; in the data set “in vitro [5]”, 30.79 ± 3.26%; in “in vitro [7]” it was 17.23 ± 5.20%. In the data set on HepG2 cells [6] (50 μg/mL incubated 30 min with human liver microsomes (phase I and II), p < 0.05), the “apoptosis rate, metabolism mixture” value turned out to be 3.86 ± 0.22%. This molecule returned an apoptosis rate with HepG2 cells [8] (50 μg/mL, mean ± SD n = 3, no change vs control) of 2.39 ± 0.34%.

In the case of `COc1ccc(-c2oc3c(CC=C(C)C)c(O)cc(O)c3c(=O)c2O)cc1` [icaritin], the amount remaining in “in vitro [1]” came to 16.75 ± 0.20%; in “in vitro [2]” it was 24.73 ± 2.38%. Further, the final amount remaining in “in vitro [3]” came out at 7.73 ± 0.17%; in data set [4] it was 19.44 ± 0.36%; in “in vitro [5]”, 4.42 ± 0.67%; in the data set “in vitro [7]”, 14.86 ± 0.76%. Besides, the “apoptosis rate, metabolism mixture” value in the data set with HepG2 cells [6] (3.8 μg/mL incubated 30 min with human liver microsomes (phase I and II), p < 0.01) is reported as 5.61 ± 0.83%. The apoptosis rate in the data set with HepG2 cells [8] (3.8 μg/mL, mean ± SD n = 3, p < 0.01 vs control) was determined as 25.93 ± 0.66%.
